Test results: PubChem BioAssay AID651717 (Broad Institute, 2012)

Tested on: mESC Bmi1-luciferase reporter, firefly/renilla ratio, 24 h
Experiment: compounds raising Bmi1 reporter signal – mouse embryonic stem cells, luciferase, cherry-pick, esBAF inhibitor project, dose response (AID 651717);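 further: luciferase knocked into Bmi1 locus with EF-1a renilla as cell number control; rising ratio signals esBAF inhibition which derepresses Bmi1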

SMILES	AC40
O=C(CCc1nnc(C2(c3ccc(Cl)cc3)CCC2)o1)N1CCCC1	3.99 µM
O=C(CN1CCCCCC1)Nc1ccc(Br)cc1Br	8.51 µM
Cc1ccc(-n2nnc(-c3cccnc3)n2)cc1	0.926 µM
O=C(CCc1ccccc1)Nc1ccc(F)cc1F	7.22 µM
c1ccc(Cn2c(-c3cncs3)nc3ccccc32)cc1	11.8 µM
O=C(c1c(F)cccc1F)N1CCCC(c2nc(-c3cccs3)no2)C1 (stereo not given)	11.8 µM
COc1ccc(C2Nc3ccccc3C(=O)N2c2ccc(C)cc2)cc1Cn1nc(C)c([N+](=O)[O-])c1C (stereo not given)	12.6 µM
Nc1n[nH]c(N)c1N=Nc1ccc(Cl)cc1	6.31 µM
COc1cccc(NC(=O)c2sc3nc4n(c(=O)c3c2C)CCC4)c1	2.73 µM
COc1ccc(-c2cc(C(=O)N3CCN(c4ccccc4O)CC3)c3ccccc3n2)cc1	3.16 µM
O=C(NC1CCCCC1)c1ccc2ccccc2c1O	1.27 µM
Cc1ccc(NCC(=O)N/N=C/c2cc3ccccc3nc2Cl)cc1	30.6 µM
Cc1cccc(NC(=O)C2C3CCCCC32)c1 (stereo not given)	4.55 µM
Cc1ccc(C(=O)CN2C(=O)NC3(CCCCCC3)C2=O)c(C)c1	1.63 µM
COC(=O)c1ccc2c(C)c(C3(O)CCCCC3)[nH]c2c1	7.47 µM
O=C(NCCc1ccccc1)c1cccc(NC(=O)C2CCC2)c1	8.75 µM
O=C(Nc1ccc2c(c1)C(=O)c1ccccc1-2)c1ccccc1	1.08 µM
Cc1noc(C)c1C(=O)Nc1nc(-c2cc(F)ccc2F)cs1	6.63 µM
COc1ccc(NC(=O)c2cc(-c3cccs3)on2)cc1	3.06 µM
COc1ccccc1C(=O)Nc1sc2c(c1C#N)CCC2	2.15 µM
CCn1c(SCc2ccccc2Cl)nc2ccccc21	5.49 µM
COc1ccc2[nH]c(=O)c(CNc3cccc(C)c3)cc2c1	12.9 µM
Cc1cccc(-c2noc(Cc3ccccc3)n2)c1	2.87 µM

SMILES	AC40
Oc1ccccc1C=NN1CCCCCC1	1.93 µM
Cc1ccc(-c2nc3ccccc3[nH]2)cn1	3.49 µM
COc1cc2[nH]c(C(=O)N3CCc4ccccc43)cc2c(OC)c1OC	2.77 µM
CCCNC(=O)Nc1ccc2c(c1)C(=O)N(C)C[C@H](OC)[C@@H](C)CN(Cc1ccc(-c3ccccn3)cc1)[C@@H](C)CO2	14.1 µM
Cc1ccc(NC(=O)NC2CCCCCCC2)cc1C	4.22 µM
Clc1ccc(N/N=C/c2cccnc2)cc1	2.59 µM
CCN(CC(=O)NCc1ccc(F)cc1)C(=O)c1ccc(COc2ccccc2)cc1	25.2 µM
CC(=O)c1ccc(S(=O)(=O)N(Cc2cc3cc4c(cc3[nH]c2=O)OCCO4)CC2CCCO2)cc1 (stereo not given)	15.2 µM
Cc1ccc(C)c(OCc2cc(C(=O)N3CC[C@@H]4CCCC[C@H]4C3)no2)c1	7.9 µM
Clc1ccc(-c2nnc(-c3cccc4ccccc34)o2)cc1	1.79 µM
O=C(NNC(=O)c1ccccc1OCc1ccccc1)c1ccccc1F	11.5 µM
COc1ccc(C(=O)Nc2ccc(Cl)cn2)cc1Cl	2.38 µM
Cc1ccc(S(=O)(=O)N2CCN(C(=O)c3ccc4ccccc4n3)CC2)c(C)c1	6.53 µM
COc1cc(SC)ccc1C(=O)NCC1CCCCC1	3.03 µM
CC1CCCN(C(=O)c2cc3c(=O)n4ccccc4nc3s2)C1 (stereo not given)	14.1 µM
ClCCn1cnc2c(SCc3ccccc3)ncnc21	2.74 µM
Cc1cccc(NC(=O)Nc2cccc(F)c2)n1	8.39 µM
O=C(O)C=C1CCN(c2ncc(C(F)(F)F)cc2Cl)CC1	2.07 µM
O=C(CCCc1ccccn1)c1ccc(-c2ccccc2)cc1	4.03 µM
O=C(Nc1cccc(-c2nc3ccccc3s2)c1)c1cc(-n2cnnc2)ccc1Cl	7.62 µM
COC(=O)c1ccc2[nH]c(C3(O)CCCCC3)c(C)c2c1	5.55 µM
O=C(N/N=C/c1cccs1)c1cccc2cc[nH]c12	6.06 µM
Oc1[nH]c2ccccc2c1/C=N/c1nccs1	4.59 µM

SMILES	AC40
C/C(=N/O)c1cccc(N2Cc3ccccc3C2)c1	18.5 µM
O=C(O)c1ccc(O)c2ncccc12	1.67 µM
O=C(/C=N/NC(=O)c1ccc(Cl)cc1Cl)c1ccccc1	1.41 µM
C=CCSC1=NNC(c2ccc(C(C)(C)C)cc2)=NN1	8.49 µM
COc1ccc(/C=N/NC(=O)Cc2cccs2)cc1	8.51 µM
COc1ccc(NC(=O)Cc2ccccc2)cc1	8.22 µM
CC(C)CN1C(=O)c2ccc(NC(=O)c3cccs3)cc2C1=O	3.84 µM
Nc1ccc(C#Cc2ccc3c(=O)c4ccccc4oc3c2)cc1	3.64 µM
COc1cccc(-c2nc(-c3ccc(NC(=O)c4cccs4)cc3)no2)c1	4.26 µM
COc1cc(/C=C/c2nc3ccccc3c(=O)[nH]2)ccc1OC(F)F	1.6 µM
COc1cccc(NC(=O)C(=O)NCC2CCCN2S(=O)(=O)c2cccs2)c1 (stereo not given)	1.25 µM
CCOC(=O)C1=C(CSc2nc(-c3ccccc3)ccc2C#N)OC(N)=C(C#N)C1c1cccnc1 (stereo not given)	2.89 µM
CC(C)c1ccc(CNc2ncccn2)cc1	2.82 µM
C=CCNc1nc2cc(-c3ccccc3OC)sc2c(=O)n1C	5.18 µM
COc1cccc(OCc2cc(C(=O)N(C)C3CCCCC3)no2)c1	4.53 µM
Clc1ccc(C=NN2CCCCCC2)cc1	0.983 µM
CCS(=O)(=O)n1nc(-c2ccc(Cl)cc2)nc1SC	4.79 µM
O=C(NCc1ccc2c(c1)OCO2)Nc1cccc(Cl)c1	7.4 µM
Cc1ccc(CNC(=O)c2ccc(Cn3cc(-c4ccc(C)cc4)nc3-c3ccncc3)cc2)cc1	1.77 µM
COc1ccc(N=Cc2c(O)[nH]c3ccccc23)cc1OC	3.05 µM
COc1ccc(-c2csc(C(O)c3ccc(F)cc3)n2)cc1 (stereo not given)	1.54 µM
COc1cccc(Nc2cc(C)c3ccccc3n2)c1	6.06 µM
C(=N\N1CCN(c2ccccc2)CC1)/c1ccccc1	4.79 µM

SMILES	AC40
CC(=O)c1c(C)[nH]c(C(=O)OCc2ccc(Br)cc2)c1C	6.96 µM
COc1ccc(-n2nc(C(=O)NCC(=O)N3CCN(c4ccccc4)CC3)c3ccccc3c2=O)c(OC)c1	3.37 µM
Cc1cc(Br)ccc1OCc1nc(-c2cccnc2)no1	9.06 µM
CCn1c(C)nc2cc(C(=O)NN=Cc3ccccc3OC(F)F)ccc21	1.96 µM
COc1cccc(NC(=O)C(=O)NCCC2CCCCN2S(=O)(=O)c2ccccc2)c1 (stereo not given)	2.93 µM
Cc1csc(NC(=O)Cc2c(F)cccc2Cl)n1	8.57 µM
Clc1ccc(-c2cn3cccnc3n2)cc1Cl	3.56 µM
Cc1ccc(/C(N)=N/OC(=O)CCc2ccccc2)cc1	11 µM
Cc1ccc(Cl)c2c(N=Nc3ccccc3)c(O)[nH]c12	0.93 µM
CN(C)S(=O)(=O)c1ccc2c(c1)/C(=C/c1cc3c([nH]1)CCCC3)C(=O)N2	3.25 µM
Cc1ccc(N=Nc2cc(C)ccc2O)c(C)c1	3.74 µM
CCn1c(=N)n(CC(=O)c2cccc(OC)c2)c2ccccc21	8.58 µM
O=C(NCC1CC1)Nc1ccc(Cl)cc1	15.5 µM
CCC1CCCCN1C(=O)c1ccc2nc(Cc3ccc(OC)cc3)oc2c1 (stereo not given)	3.04 µM
CCN(CC)S(=O)(=O)c1cccc(-c2cn3cc(C)ccc3n2)c1	4 µM
NC(=O)C1CCN(c2nc(-c3cccc(N)c3)cs2)CC1	1.35 µM
CC(C)CN=c1cc(-c2ccccc2)oc2ccc(Cl)cc12	2.27 µM
CCN1CCN(c2ccc(NC(=O)c3cccc(N4CCCC4=O)c3)cc2)CC1	10.3 µM
CCc1cc(CNC(=O)c2cc(COc3ccc(C)nc3)on2)on1	6.87 µM
COc1ccccc1C(=O)Oc1ccccc1C(=O)Nc1ccccc1	5.18 µM
COc1ccc(NC(=O)c2cc(-c3ccccc3Cl)on2)cc1	11.8 µM
